According to US20240327353A1:
Like-named read-outs stand apart in the source and are kept apart here.

Legend:
[1] = molecular target: T1, 5-HT2BR (Homo sapiens, UniProt P41595); assay: biochemical
Method: (§2) All cells were grown adherently in 10 cm plates in a humidified incubator kept at 37° C. and 5% carbon dioxide. […] Transient transfections were used to express 5-HT2A, 5-HT2C, α1A- or α1B-adrenergic receptors, whereas 5-HT7(a)Rs were stably expressed in HEK293 cells. H1Rs were transiently expressed, and D2Rs were stably expressed in CHO cells.
(§3) Transient transfections were performed on cells in the log growth phase (70-90% confluence). […] Each solution was mixed by inversion before combining, mixed by inversion again, and incubated at 37° C. for 30 minutes. Cells were then washed with 1 mL 1×PBS, followed by the gentle addition of 5 mL of transfection cocktail and 5 mL of cell culture medium with 5% (final) dialyzed FBS. Transfections were performed for 48 hours.
(§4) The affinity of ligands was determined via radioligand binding techniques using human recombinant receptors expressed in mammalian clonal cells.
(§5) Saturation binding experiments were performed on membranes expressing 5-HT2A, 5-HT2B, 5-HT2C, or H1Rs in triplicate across 8 concentrations. Competition binding assays were performed in at least triplicate with approximate Kd concentrations of radioligand. Total and nonspecific binding were determined in octet. […] Serial dilutions of unlabeled compound were made in assay buffer at 2.5× the final concentration using 10 mM DMSO stocks (final [DMSO]≤1%). Assays were terminated using rapid filtration via Whatman GF/B Fired Filters (Brandel Inc., Gaithersburg, MD) soaked in 0.3% (w/v) PEI, using an automated Tomtec Harvester 96 (Hamden, CT).
(§6) Filters were washed with 50 mM Tri-HCl (pH=7.4, 4° C.) before being oven dried and placed into scintillation vials containing 1 mL SX18-4 ScintiVerse^TM BD Cocktail (Fisher Chemical, Fair Lawn, NJ).
(§7) GraphPad Prism (La Jolla, CA) version 9.1.1 was used to analyze all experimental data in this work. To analyze data from saturation binding studies, the radioligand counts per minute (cpm) were normalized to fmol/mg protein bound and then fit the data to a ‘specific binding with hill slope’ model. For competitive radioligand displacement studies, a baseline correction was performed by subtracting the mean nonspecific binding value from the radioligand binding values with and without competitor to obtain specific binding values. Specific binding values were then normalized such that total binding in the absence of competitor represented 100% radioligand binding, and the radioactivity associated with each concentration of competitor was a percentage of total binding. The normalized data was then fit to the ‘one-site Fit Ki’ nonlinear regression model.

[2] = molecular target: T2, 5-HT2AR (Homo sapiens, UniProt P28223); assay: Radioligand binding (competitive displacement and saturation), cell membranes; conditions: for Ki: pKi 5-HT2AR
T2 construct: host or cells: HEK293, transient
Method: (§1) Transfections were performed for 48 hours.

[3] = molecular target: T3, 5-HT2CR (Homo sapiens, UniProt P28335); assay: biochemical
T3 sequence (P28335 33-458): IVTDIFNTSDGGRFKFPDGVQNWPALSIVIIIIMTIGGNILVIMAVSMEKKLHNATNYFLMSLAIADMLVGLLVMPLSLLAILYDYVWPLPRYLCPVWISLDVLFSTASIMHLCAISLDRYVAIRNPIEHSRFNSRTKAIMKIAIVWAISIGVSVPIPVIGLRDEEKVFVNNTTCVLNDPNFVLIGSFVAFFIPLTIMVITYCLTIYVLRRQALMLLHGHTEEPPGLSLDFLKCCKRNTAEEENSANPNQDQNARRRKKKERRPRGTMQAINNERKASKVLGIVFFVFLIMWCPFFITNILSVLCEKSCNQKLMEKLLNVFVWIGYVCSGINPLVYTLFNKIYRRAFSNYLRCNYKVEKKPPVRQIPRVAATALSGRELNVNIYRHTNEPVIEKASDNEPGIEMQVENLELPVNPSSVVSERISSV
Method: as §2, §3, §4, §5, §6, §7

[4] = molecular target: T4, H1R (Homo sapiens, UniProt P35367); assay: Radioligand binding (competitive displacement and saturation), cell membranes
T4 construct: host or cells: CHO, transient
T4 sequence (P35367 whole entry): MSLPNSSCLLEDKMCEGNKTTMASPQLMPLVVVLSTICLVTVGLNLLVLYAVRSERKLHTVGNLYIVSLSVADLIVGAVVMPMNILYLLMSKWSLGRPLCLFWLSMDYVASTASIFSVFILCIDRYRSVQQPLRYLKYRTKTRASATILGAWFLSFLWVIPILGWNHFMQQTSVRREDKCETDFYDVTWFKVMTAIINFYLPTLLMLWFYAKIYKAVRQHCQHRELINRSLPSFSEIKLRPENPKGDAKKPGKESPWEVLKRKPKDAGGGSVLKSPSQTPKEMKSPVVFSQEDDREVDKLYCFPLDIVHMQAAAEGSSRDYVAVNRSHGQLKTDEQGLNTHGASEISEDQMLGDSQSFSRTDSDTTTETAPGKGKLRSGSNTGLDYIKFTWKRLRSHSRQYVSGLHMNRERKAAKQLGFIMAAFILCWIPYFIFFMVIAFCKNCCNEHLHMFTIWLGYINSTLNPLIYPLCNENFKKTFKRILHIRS
Method: as §1

[5] = molecular target: T1, 5-HT2BR; assay: as above
Method: as §2, §3, §4, §5, §6, §7

[6] = displacement of [^3H]ketanserin, mean of n independent experiments, ± SD where n ≥ 5
[7] = pKi H1R, displacement of [^3H]mepyramine, mean of n independent experiments, ± SD where n ≥ 5

T2 sequence (P28223 whole entry): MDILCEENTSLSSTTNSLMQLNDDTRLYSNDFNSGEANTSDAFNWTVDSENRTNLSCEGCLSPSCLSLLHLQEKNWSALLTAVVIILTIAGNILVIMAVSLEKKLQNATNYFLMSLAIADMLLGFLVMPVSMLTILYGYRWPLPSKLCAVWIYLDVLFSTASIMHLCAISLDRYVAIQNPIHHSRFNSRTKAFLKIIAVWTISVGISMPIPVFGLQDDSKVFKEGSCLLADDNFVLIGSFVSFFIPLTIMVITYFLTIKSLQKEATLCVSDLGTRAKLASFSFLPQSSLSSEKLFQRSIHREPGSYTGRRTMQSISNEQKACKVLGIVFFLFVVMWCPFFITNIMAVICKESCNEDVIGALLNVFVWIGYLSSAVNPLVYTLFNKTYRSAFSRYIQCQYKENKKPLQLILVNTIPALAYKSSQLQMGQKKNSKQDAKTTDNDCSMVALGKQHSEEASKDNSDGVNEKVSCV
T1 sequence (P41595 whole entry): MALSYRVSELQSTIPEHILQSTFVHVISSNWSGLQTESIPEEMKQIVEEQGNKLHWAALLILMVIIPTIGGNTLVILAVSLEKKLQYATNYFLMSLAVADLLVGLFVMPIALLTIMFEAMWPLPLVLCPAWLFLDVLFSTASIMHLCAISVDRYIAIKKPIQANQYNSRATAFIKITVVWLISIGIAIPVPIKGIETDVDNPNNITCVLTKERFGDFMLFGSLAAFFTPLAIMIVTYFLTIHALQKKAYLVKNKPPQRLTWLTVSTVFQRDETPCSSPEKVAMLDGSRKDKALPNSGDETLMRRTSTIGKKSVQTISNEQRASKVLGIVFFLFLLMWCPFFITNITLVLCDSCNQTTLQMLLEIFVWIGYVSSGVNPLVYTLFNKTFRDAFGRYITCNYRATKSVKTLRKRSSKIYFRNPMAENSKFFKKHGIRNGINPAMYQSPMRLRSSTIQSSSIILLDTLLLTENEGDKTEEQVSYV

SMILES | Ki [1] [nM] | Ki [2, 6] [nM] | Ki [3] [nM] | also measured
CN(C)[C@@H]1Cc2ccccc2[C@H](c2cccc(Br)c2)C1 (single isomer, unassigned) [(2R,4R)-3a, Cis-4-(3-bromophenyl)-N, N-dimethyl-1,2,3,4-tetrahydronaphthalen-2-amine] | 85.1 | 31.6 | 57.5 | –
CN(C)[C@@H]1Cc2ccccc2[C@H](c2cccc(Cl)c2)C1 (single isomer, unassigned) [(2R,4R)-3b, Cis-4-(3-chlorophenyl)-N, N-dimethyl-1,2,3,4-tetrahydronaphthalen-2-amine] | 115 | – | – | –
CN(C)[C@@H]1Cc2ccccc2[C@H](c2cccc(F)c2)C1 (single isomer, unassigned) [(2R,4R)-3b′, Cis-4-(3-fluorophenyl)-N, N-dimethyl-1,2,3,4-tetrahydronaphthalen-2-amine] | 447 | – | 251 | –
CN(C)[C@@H]1Cc2ccccc2[C@H](c2cccc(-c3cccs3)c2)C1 (single isomer, unassigned) [(2R,4R)-3c, Cis-4-(3-(thiophen-2-yl)phenyl)-N,N-dimethyl-1,2,3,4-tetrahydronaphthalen-2-amine] | 105 | – | 24 | Ki ([4]; read-out: pKi H1R (converted)): 234 nM; selectivity for 5-HT2ARs over 5-HT2B and H1Rs ([2]; one figure for both off-targets): 30-60 fold; Ki [2]: 3.55 nM
CN(C)[C@@H]1Cc2ccccc2[C@H](c2cccc(-c3ccco3)c2)C1 (single isomer, unassigned) [(2R,4R)-3d, Cis-4-(3-(furan-2-yl)phenyl)-N,N-dimethyl-1,2,3,4-tetrahydronaphthalen-2-amine] | – | – | – | Ki [4, 7]: 50.1 nM
CN(C)[C@@H]1Cc2ccccc2[C@H](c2cccc(-c3ccccc3)c2)C1 (single isomer, unassigned) [(2R,4R)-3f, Cis-4-([1,1′-biphenyl]-3-yl)-N,N-dimethyl-1,2,3,4-tetrahydronaphthalen-2-amine] | 117 | – | 26.9 | –
CN(C)[C@@H]1Cc2ccccc2[C@H](c2cccc(-c3ccc(Cl)cc3)c2)C1 (single isomer, unassigned) [(2R,4R)-3j, Cis-4-(4′-chloro-[1,1′-biphenyl]-3-yl)-N,N-dimethyl-1,2,3,4-tetrahydronaphthalen-2-amine] | – | 1.7 | 9.33 | pKi H1R [4]: 7.84^(2) 7.89-7.78 8.84^(3) 8.86-8.82 ND 6.40^(3) 6.41-6.40
CN(C)c1ccc(-c2cccc([C@@H]3C[C@H](N(C)C)Cc4ccccc43)c2)cc1 (single isomer, unassigned) [(2R,4R)-3k, Cis-4-(4′-(dimethylamino)-[1,1′-biphenyl]-3-yl)-N,N-dimethyl-1,2,3,4-tetrahydro-naphthalen-2-amine] | – | – | – | pKi 5-HT2BR [5]: 5.52^(2) 5.68-5.37 7.10 ± 0.21^(5) 7.40-6.82 5.97^(2) 6.08-5.87 5.97^(2) 6.09-5.86
CN(C)[C@@H]1Cc2ccccc2[C@@H](c2cccc(-c3ccccc3)c2)C1 (single isomer, unassigned) [(2R,4S)-2f, Trans-4-([1,1′-biphenyl]-3-yl)-N,N-dimethyl-1,2,3,4-tetrahydronaphthalen-2-amine] | 112 | – | 69.2 | –
CN(C)C1Cc2ccccc2C(c2cccc(-c3ccccc3F)c2)C1 (single isomer, unassigned) [(2R,4S)-2g, Trans-4-(2′-fluoro-[1,1′-biphenyl]-3-yl)-N, N-dimethyl-1,2,3,4-tetrahydronaphtha-len-2-amine] | 43.7 | 30.9 | – | pKi H1R [4]: 6.93^(2) 7.02-6.84 8.75^(4) 9.1-8.62 ND 6.54^(2) 6.67-6.40
CN(C)[C@@H]1Cc2ccccc2[C@@H](c2cccc(-c3ccco3)c2)C1 (single isomer, unassigned) [(2S,4R)-2d, Trans-4-(3-(furan-2-yl)phenyl)-N,N-dimethyl-1,2,3,4-tetrahydronaphthalen-2-amine] | – | – | – | Ki [4, 7]: 3.39 nM
CN(C)[C@@H]1Cc2ccccc2[C@@H](c2cccc(-c3ccncc3)c2)C1 (single isomer, unassigned) [(2S,4R)-2e, Trans-4-(3-(pyridin-4-yl)phenyl)-N,N-dimethyl-1,2,3,4-tetrahydronaphthalen-2-amine] | – | 7.41 | 42.7 | Ki [4, 7]: 1.38 nM
CN(C)[C@@H]1Cc2ccccc2[C@@H](c2cccc(-c3ccccc3)c2)C1 (single isomer, unassigned) [(2S,4R)-2f, Trans-4-([1,1′-biphenyl]-3-yl)-N,N-dimethyl-1,2,3,4-tetrahydronaphthalen-2-amine] | 52.5 | – | 3.31 | –
CN(C)C1Cc2ccccc2C(c2cccc(-c3ccccc3F)c2)C1 (single isomer, unassigned) [(2S,4R)-2g, Trans-4-(2′-fluoro-[1,1′-biphenyl]-3-yl)-N, N-dimethyl-1,2,3,4-tetrahydronaphtha-len-2-amine] | 81.3 | 0.813 | – | Ki [4, 7]: 1.78 nM
CN(C)[C@@H]1Cc2ccccc2[C@H](c2cccc(Cl)c2)C1 (single isomer, unassigned) [(2S,4S)-3b, Cis-4-(3-chlorophenyl)-N, N-dimethyl-1,2,3,4-tetrahydronaphthalen-2-amine] | 389 | – | – | –
CN(C)[C@@H]1Cc2ccccc2[C@H](c2cccc(F)c2)C1 (single isomer, unassigned) [(2S,4S)-3b′, Cis-4-(3-fluorophenyl)-N, N-dimethyl-1,2,3,4-tetrahydronaphthalen-2-amine] | 912 | – | 437 | –
CN(C)[C@@H]1Cc2ccccc2[C@H](c2cccc(-c3cccs3)c2)C1 (single isomer, unassigned) [(2S,4S)-3c, Cis-4-(3-(thiophen-2-yl)phenyl)-N,N-dimethyl-1,2,3,4-tetrahydronaphthalen-2-amine] | 89.1 | – | 224 | Ki ([4]; read-out: pKi H1R (converted)): 437 nM; Ki [2]: 151 nM
CN(C)[C@@H]1Cc2ccccc2[C@H](c2cccc(-c3ccccc3F)c2)C1 (single isomer, unassigned) [(2S,4S)-3g, Cis-4-(2′-fluoro-[1,1′-biphenyl]-3-yl)-N,N-dimethyl-1,2,3,4-tetrahydronaphthalen-2-amine] | – | 40.7 | – | pKi 5-HT2BR [5]: 7.36^(2) 7.36-7.35 7.09^(3) 7.23-6.90 6.53^(3) 6.71-6.30 6.33^(2) 6.49-6.17
CN(C)[C@@H]1Cc2ccccc2[C@H](c2cccc(-c3cccc(F)c3)c2)C1 (single isomer, unassigned) [(2S,4S)-3h, Cis-4-(3′-fluoro-[1,1′-biphenyl]-3-yl)-N,N-dimethyl-1,2,3,4-tetrahydronaphthalen-2-amine] | – | – | – | pKi H1R [4]: 7.31 ^(2) 7.39-7.23 8.96^(3) 9.11-8.88 6.20^(2) 6.23-6.18 6.30 ± 0.10^(5) 6.42-6.14; pKi 5-HT2AR [2, 6]: 7.69
CN(C)[C@@H]1Cc2ccccc2[C@H](c2cccc(-c3ccc(Cl)cc3)c2)C1 (single isomer, unassigned) [(2S,4S)-3j, Cis-4-(4′-chloro-[1,1′-biphenyl]-3-yl)-N,N-dimethyl-1,2,3,4-tetrahydronaphthalen-2-amine] | – | 63.1 | 97.7 | –
CN(C)c1ccc(-c2cccc([C@@H]3C[C@H](N(C)C)Cc4ccccc43)c2)cc1 (single isomer, unassigned) [(2S,4S)-3k, Cis-4-(4′-(dimethylamino)-[1,1′-biphenyl]-3-yl)-N,N-dimethyl-1,2,3,4-tetrahydro-naphthalen-2-amine] | – | – | – | pKi 5-HT2BR [5]: 5.52^(2) 5.68-5.37 7.10 ± 0.21^(5) 7.40-6.82 5.97^(2) 6.08-5.87 5.97^(2) 6.09-5.86
CN(C)C1Cc2ccccc2C(c2cccc(-c3cccc(F)c3)c2)C1 [(2R,4S)-2h, Trans-4-(3′-fluoro-[1,1′-biphenyl]-3-yl)-N,N-dimethyl-1,2,3,4-tetrahydronaphtha-len-2-amine] | – | – | – | Ki [4, 7]: 49 nM; pKi 5-HT2AR [2, 6]: 8.03
CN(C)C1Cc2ccccc2C(c2cccc(-c3ccc(Cl)cc3)c2)C1 [(2R,4S)-2j, Trans-4-(4′-chloro-[1,1′-biphenyl]-3-yl)-N,N-dimethyl-1,2,3,4-tetrahydronaphtha-len-2-amine] | – | 5.37 | 7.08 | Ki [4, 7]: 14.5 nM
CN(C)c1ccc(-c2cccc(C3CC(N(C)C)Cc4ccccc43)c2)cc1 [(2R,4S)-2k, Trans-4-(4′-(dimethylamino)-[1,1′-biphenyl]-3-yl)-N,N-dimethyl-1,2,3,4-tetra-hydronaph-thalen-2-amine] | – | – | – | pKi 5-HT2BR [5]: 5.52^(2) 5.68-5.37 7.10 ± 0.21^(5) 7.40-6.82 5.97^(2) 6.08-5.87 5.97^(2) 6.09-5.86
CN(C)[C@@H]1Cc2ccccc2[C@@H](c2cccc(-c3cccc(F)c3)c2)C1 [(2S,4R)-2h, Trans-4-(3′-fluoro-[1,1′-biphenyl]-3-yl)-N,N-dimethyl-1,2,3,4-tetrahydronaphtha-len-2-amine] | – | – | – | pKi H1R ([4]; displacement of [^3H]mepyramine, mean of n independent experiments, ± SD where n ≥ 5): 8.96; pKi 5-HT2AR [2, 6]: 9.22
CN(C)[C@@H]1Cc2ccccc2[C@@H](c2cccc(-c3ccc(Cl)cc3)c2)C1 [(2S,4R)-2j, Trans-4-(4′-chloro-[1,1′-biphenyl]-3-yl)-N,N-dimethyl-1,2,3,4-tetrahydronaphtha-len-2-amine] | – | 0.288 | 4.9 | Ki [4, 7]: 1.45 nM
